The record followed here is patent US20210284622A1, “BIOACTIVE POLYMERS WITH ANTI=FOULING PROPERTIES FOR MEDICAL AND DENTAL USES” (OREGON HEALTH & SCIENCE UNIVERSITY, priority 2020, published 2021).

Usually MIC stands for the lowest concentration found to suppress growth.

What all share (format): cell-based
Assay [1] relates to S. mutans. As to the kind of experiment: Minimum inhibitory concentration (MIC) against S. mutans, serial dilution, TH medium plus sucrose, 96 h. The note with it: Streptococcus mutans, S. mutans in TH medium plus sucrose, 37° C. aerobically. How it is done:
Methods: G43, and its non-binding counterpart, G43TEG (N-(2-carbamoyl-4-(2-(2-(2-(2-hydroxyethoxy)ethoxy)ethoxy)ethoxy)phenyl)-5-nitrobenzo[b]thiophene-2-carboxamide), were synthesized and minimum inhibitory concentration (MIC) against S. mutans was established. The compounds were serially diluted in DMSO to 400, 200, 100, 50, 25 and 12.5 then added to S. mutans grown in TH medium plus sucrose. Cultures were incubated for 96 h at 37° C. aerobically. Supernatants with planktonic cells and biofilms were assayed separately for metabolic activity using S. mutans carrying a renilla luciferase reporter. G43 or G43TEG were added at 4 wt % into 50:50 BisGMA/TEGDMA and 70 wt % filler. 0.2 wt % BAPO, 0.05 wt % BHT were used as the photoinitiator and inhibitor, respectively. Polymerization kinetics were assessed for 5 min by near-IR in discs (4 mm by 10 mm diameter), cured with a LED light source (700 mW/cm2, 30 s). Discs were then immersed in deionized H2O for 7 days, with extracted monomers collected every 24 h. Results were analyzed with one-way ANOVA/Tukey's test (α=0.05). […] Polymerizations of dental resins were relatively unaffected by 4% G43 or G43TEG (FIG. 1).

Assay [2] deals with S. mutans. As to the kind of experiment: Biofilm bacterial viability by metabolic activity, renilla luciferase reporter S. mutans. The settings on record: at MIC, FIG. 1. The text has this: FIG. 2 represents S. mutans bacterial viability as measured using a metabolic activity via arenilla-reporter S. mutans(Merritt2016).
Methods: G43, and its non-binding counterpart, G43TEG (N-(2-carbamoyl-4-(2-(2-(2-(2-hydroxyethoxy)ethoxy)ethoxy)ethoxy)phenyl)-5-nitrobenzo[b]thiophene-2-carboxamide), were synthesized and minimum inhibitory concentration (MIC) against S. mutans was established. The compounds were serially diluted in DMSO to 400, 200, 100, 50, 25 and 12.5 then added to S. mutans grown in TH medium plus sucrose. Cultures were incubated for 96 h at 37° C. aerobically. Supernatants with planktonic cells and biofilms were assayed separately for metabolic activity using S. mutans carrying a renilla luciferase reporter. […] Polymerization kinetics were assessed for 5 min by near-IR in discs (4 mm by 10 mm diameter), cured with a LED light source (700 mW/cm2, 30 s). […] Results were analyzed with one-way ANOVA/Tukey's test (α=0.05). […]
Eight G43 derivatives (G43, G43TEG, G43-TEG-MMA, G43-A2-OMe, G43-A-NH2, G43B-Furan, G43-B1-OMe, G43-C3-OMe, and G16) were synthesized de novo screened against S. mutans for biofilm inhibition. […] Biofilms were stained with crystal violet (CV), washed 3× with DI H2O, and then the CV was volumetrically extracted to colorimetrically determine the quantity of biofilm. […] Results were analyzed with one-way ANOVA/Tukey's test (α=0.05).
(A reporter such as luciferase makes a cellular process visible.)

The next assay deals with GtfC mutants. As to the kind of experiment: Crystal violet biofilm quantification in four strains of S. mutans (Gtf mutants). The settings on record: FIG. 5. The protocol:
FIG. 5 represents quantification of biofilms grown using four strains of S. mutans and colorimetrically quantified CV (Absat562 nm) to quantity the biofilm. Note that AGTF denotes which Gtf enzyme(s) are not expressed by the strain.
(§1) Eight G43 derivatives (G43, G43TEG, G43-TEG-MMA, G43-A2-OMe, G43-A-NH2, G43B-Furan, G43-B1-OMe, G43-C3-OMe, and G16) were synthesized de novo screened against S. mutans for biofilm inhibition. The compounds were dissolved in DMSO and serially diluted in H2O at 50 μM, then added to S. mutans cultures (TH medium with sucrose) & incubated for 96 h at 37° C. aerobically. Biofilms were assayed for bacterial viability (metabolic activity via a renilla-reporter S. mutans—Merritt2016). Biofilms were stained with crystal violet (CV), washed 3× with DI H2O, and then the CV was volumetrically extracted to colorimetrically determine the quantity of biofilm. Next, biofilms were washed 3× with DI H2O, then sterilized with EtOH, azeotropically dried. Insoluble biofilm was chemically digested by 1) methylation, 2) acid depolymerization, 3) reduction, and 4) acylation, resulting in methylated alditol acetates for polysaccharide connectivity determination by GC/MS. Results were analyzed with one-way ANOVA/Tukey's test (α=0.05).

For assay [3], the system named is S. mutans. As to the kind of experiment: Biofilm quantification by crystal violet (CV) stain, Abs at 562 nm. The note with it: 50 μM, FIGS. 3 & 4. How it is done: FIG. 3 Represents quantification of biofilms grown under different inoculants (50 μM) using crystal violet (CV) stain: (top) Biofilm morphology as visualized after CV stain, (chart) Colorimetrically quantified CV (Absat562 nm) to quantity the biofilm.
FIG. 4 represents quantification of biofilms grown under different inoculants (50 μM) using crystalviolet (CV) stain: (top) Biofilm morphology as visualized after CVstain, (chart) Colorimetrically quantified CV (Absat562 nm) to quantity the biofilm.
as §1, with “Insoluble biofilm was chemically digested by 1) methylation, 2) acid depolymerization, 3) reduction, and 4) acylation, resulting in methylated alditol acetates for polysaccharide connectivity determination by GC/MS.” left out

Regarding `NC(=O)c1cc(OCCOCCOCCOCCO)ccc1NC(=O)c1cc2cc([N+](=O)[O-])ccc2s1` [G43TEG, N-(2-carbamoyl-4-(2-(2-(2-(2-hydroxyethoxy)ethoxy)ethoxy)ethoxy)phenyl)-5-nitrobenzo[b]thiophene-2-carboxamide], the MIC in the assay with S. mutans [1] was 25 to 50 µM. The “reduction of viable biofilm cells” value with S. mutans [2] is on record as “significant reduction”. Moreover, in the assay with GtfC mutants, the “biofilm reduction in GtfC mutants” value is listed as “biofilm reduction efficacy”. Moreover, the biofilm production entry in the assay with S. mutans [3] is listed as “significantly reduced”.
For `NC(=O)c1ccccc1NC(=O)c1cc2cc([N+](=O)[O-])ccc2s1` [G43, N-(2-carbamoylphenyl)-5-nitrobenzo[b]thiophene-2-carboxamide], in that order: 25 to 50 µM, “significant reduction”, “biofilm reduction efficacy” and “significantly reduced”.
